Tested on: DOXO resistant cell line KB-V1
Experiment: Cytotoxicity of DOXO-loaded nanogel compounds vs free DOXO, MTT assay, resistant cells
Assay type: cell-based
Details: free DOXO up to 10 μM external concentration
Source text: In order to use the nanogel compounds for anticancer therapy, the cytotoxicity of the DOXO-loaded nanogel compounds compared with free DOXO was studied in two different cell lines: sensitive-type HeLa cells and DOXO resistant cell line KB-V1. Thereby, squares denote PNIPAM-dPG/AMPS, circles denote PNIPAM-dPG/DMAEM, and triangles denote free DOXO.

Compound: COc1cccc2c1C(=O)c1c(O)c3c(c(O)c1C2=O)C[C@@](O)(C(=O)CO)C[C@@H]3O[C@H]1C[C@H](N)[C@H](O)[C@H](C)O1 [DOXO, doxorubicin]
- cytotoxicity: no effect

Reference: US20180179386A1, “NANOGEL COMPOUND” (priority 2015, published 2018)
